# Source: US20080138284A1, “Novel Peptides That Promote Lipid Efflux” (Lipid Sciences, Inc., priority 2006, published 2008)
# Columns and labels:
# [1] = tested on: HeLa cells transfected with only a hygromycin-resistant control plasmid (control cells); conditions: as previously described (Hamon et al.; Remaley et al.); cited from earlier work
# [2] = tested on: HeLa cells stably transfected with human ABCA1 cDNA (ABCA1 cells); experiment: Cholesterol and phospholipid efflux from ABCA1-transfected HeLa cells (incl. time course); assay type: cell-based
# Procedure: (§1) HeLa cells stably transfected with human ABCA1 cDNA (ABCA1 cells) and HeLa cells transfected with only a hygromycin-resistant control plasmid (control cells) are produced and grown in α-modified Eagle's medium (aMEM) plus 10% fetal calf serum, as described by Remaley et al. (Biochem. Biophys. Res. Commun. 280:818-823, 2001). Cholesterol and phospholipid efflux is performed for 18 hours on noncholesterol-loaded cells radiolabeled with either cholesterol or choline (Remaley et al., Arterioscler. Thromb. Vasc. Biol. 17:1813-1821, 1997). Percentage efflux is calculated after subtracting the radioactive counts in the blank media (aMEM plus 1 mg/ml of BSA), and expressed as the percent of total radioactive counts removed from the cells during the efflux period.
# (§2) ABCA1 cells are used to assess the ability of apoA-I and synthetic peptides to efflux lipid from cells. […] The peptides of the present invention efflux approximately 2- to 4-fold more cholesterol and phospholipid from ABCA1 cells than from control cells. Both the peptides of the present invention and apoA-I began to show saturation for lipid efflux at approximately the same protein concentration of 10 μg/ml.
# Cholesterol efflux from ABCA1 cells to apoA-I is first detectable after 2 hours and increases throughout the 30 hour efflux period. […]
# [3] = tested on: HeLa cells stably transfected with human ABCA1 cDNA (ABCA1 cells); conditions: as previously described (Hamon et al.; Remaley et al.); cited from earlier work
# CD11b = CD11b expression in stimulated monocytes by flow cytometry; assay type: cell-based; conditions: human monocytes, 1 μmol/L PMA, 20 μg/ml apoA-1 or peptide
# Procedure: Monocyte Isolation Peripheral whole blood (PWB) is drawn from healthy consenting individuals into syringes containing sodium citrate (final concentration—19.2 mM). Resting human monocytes are isolated from PWB by density centrifugation with Lymphoprep (Axis Shield). Mononuclear cells (MNCs) are collected and monocytes are further separated to purity using the Dynal negative isolation kit (Invitrogen). Monocytes are resuspended in phosphate buffered saline (PBS) and cell number is determined counting cell suspension on an automated hematology analyzer (Sysmex, KX-21N, USA). Purification of HDL and apoA-1 Human plasma apoA-1 is isolated as previously described and the purity determined using total mass spectrometry. Flow Cytometry 100 μL of monocytes are stimulated with either 1 μmol/L phorbol-myristate-acetate (PMA) or 1 μg/ml lipopolysaccharide (LPS) (Sigma, Australia) in the presence or absence of apoA-1 (20 μg/ml), or 20 μg/ml of the test peptides of the present invention. SEQ ID NOs: 72, 80, 89, 354, 355 and 372 are also tested individually. The cells are incubated with the FITC conjugated antibody to either the active epitope of CD11b (eBiosciences, USA, Clone CBRM1/5) or total CD11b (Serotec, USA, Clone ICRF44) for 15 min at 37° C. Cells are then fixed with 4% paraformaldehyde. Samples are controlled for by using the appropriately matched isotype matched negative control (FITC-anti-mouse IgG) (Serotec, USA, Clone W3/25). CD11b expression is measured by flow cytometry using FACS Calibur (Becton Dickinson). Analysis is conducted using the Cell Quest Pro software. Statistical Analysis Values are presented as the mean ±SD or percentage of control ±SD. FACS results are analyzed for statistical significance using one-way ANOVA followed by Bonferroni post-hoc test. Significance is accepted at P<0.05. […] The combined effects of increasing cholesterol efflux and decreasing inflammation indicate that the peptides of the present invention effectively mimic the function of Apo AI and will decrease atherosclerosis.
# [4] = tested on: HeLa cells transfected with only a hygromycin-resistant control plasmid (control cells); experiment: Cholesterol and phospholipid efflux from control HeLa cells (incl. time course); assay type: cell-based, human; conditions: 30 hour efflux period
# Procedure: as §1, §2
# Cholesterol efflux from ABCA1 cells to apoA-I is first detectable after 2 hours and increases throughout the 30 hour efflux period. […] Overall, the kinetics for cholesterol efflux to peptides of the present invention from ABCA1 cells is similar to that of apoA-I, except that cholesterol efflux is first detectable after 30 minutes.
# [5] = tested on: FU5AH rat hepatoma cells (SR-B1); experiment: SR-B1 mediated cholesterol efflux; assay type: cell-based; conditions: samples minus blank; Apo A-I @ 20 μg/ml
# Excerpt: (§3) The methods employed in this study have been described in U.S. Pat. Nos. 7,029,863, 7,060,452, U.S. Patent Application Publication No. 2005/0191715, and in Moya et al., Arteriosclerosis & Thrombosis 1994:14:1056-1065 and Liu et al., J. Biol. Chem., 2003:278(44), 42976-42984. SR-B1 mediated cholesterol efflux is examined in FU5AH rat hepatoma cells and ABCA1 mediated cholesterol efflux is examined in J774 mouse macrophage cells as described in these references.
# [6] = tested on: J774 mouse macrophage cells (ABCA1); experiment: ABCA1 mediated cholesterol efflux; assay type: cell-based; conditions: samples minus blank, Apo A-I @ 20 μg/ml
# Excerpt: as §3
substance,measurement,setting,value
"apolipoprotein A-I [Apo A-I, reference compound]",efflux of cholesterol and phospholipid to apoA-I from control cells,[1],do not efflux significant amounts
same,protein concentration at which lipid efflux begins to show saturation,[2],~10 µg/mL
same,time after which cholesterol efflux from ABCA1 cells is first detectable,[2]; 30 hour efflux period,2 h
same,efflux of cholesterol and phospholipid to apoA-I after transfection with ABCA1,[3],do so after transfection with ABCA1
same,PMA induced CD11b expression,CD11b,significantly reduce
same,"cholesterol efflux to apoA-I from control cells, time course",[4],no significant increase above background
same,SR-BI Mediated Efflux,[5],0.26 % Per 4 h
same,+ABCA1 Cells (efflux),[6],20.682 + 0.724
same,−ABCA1 Cells (efflux),[6],1.713 ± 0.409
same,ABCA1 Mediated Efflux,[6]; equals +ABCA1 minus −ABCA1 cells,18.97 % Per 4 h
